What all share (assay type): functional
The subject of assay [1] is Shewanella putrefaciens. Description: Antimicrobial activity against Shewanella putrefaciens Sp117 harboring intI1,sul1,sul2 and beta-lactamase OXA-48 like genes by CLSI method.
Assay [2] has as its system Shewanella putrefaciens. Description: Antimicrobial activity against Shewanella putrefaciens Sp95 harboring intI1,sul1,sul2 and beta-lactamase OXA-48 like genes by CLSI method.
Assay [3] has as its system Shewanella putrefaciens. The assay can be described thus: Antimicrobial activity against Shewanella putrefaciens Sp31 harboring intI1 and beta-lactamase OXA-48 like genes by CLSI method.
Assay [4] concerns Shewanella algae. The assay can be described thus: Antimicrobial activity against Shewanella algae Sa9 harboring intI1, intI2, sul1 and sul2 genes by CLSI method.
Assay [5] relates to Shewanella algae. Description: Antimicrobial activity against Shewanella algae Sa78 harboring sul2 gene by CLSI method.
Assay [6] concerns Shewanella algae. Description: Antimicrobial activity against Shewanella algae Sa74 harboring intI1, intI2, sul1 and sul2 genes by CLSI method.
The test system of assay [7] is Shewanella algae. Description: Antimicrobial activity against Shewanella algae Sa10 harboring intI1, intI2, sul1 and sul2 genes by CLSI method.
Assay [8] relates to Shewanella algae. Description: Antimicrobial activity against Shewanella algae Sa82 harboring intI1, intI2, sul1 and sul2 genes by CLSI method.
Assay [9] relates to Shewanella algae. The assay can be described thus: Antimicrobial activity against Shewanella algae Sa392 harboring intI1, intI2, sul1 and sul2 genes by CLSI method.
Assay [10] concerns Shewanella algae. The assay can be described thus: Antimicrobial activity against Shewanella algae Sa2 harboring intI1, intI2 and sul1 genes by CLSI method.

≈ marks a conversion by molar mass, not a printed value.

As a reminder, the MIC is the least concentration at which growth counts as inhibited. Read a low MIC as greater potency.

As to `C[C@@H](O)[C@H]1C(=O)N2C(C(=O)O)=C(S[C@@H]3CN[C@H](C(=O)N(C)C)C3)[C@H](C)[C@H]12` [MEROPENEM], the minimum inhibitory concentration (MIC) in [1] is 4 µg/mL (≈ 10.4 µM); in assay [2], 0.25 µg/mL (≈ 0.652 µM); in [3], 0.125 µg/mL (≈ 0.326 µM); in [4], 0.125 µg/mL (≈ 0.326 µM); in assay [5], 0.25 µg/mL (≈ 0.652 µM); in assay [6], 0.0094 µg/mL (≈ 0.0245 µM). Also, the minimal inhibitory concentration (MIC) in assay [7] is 1 µg/mL (≈ 2.61 µM); in assay [8] it was 0.38 µg/mL (≈ 0.991 µM); in assay [9], 1 µg/mL (≈ 2.61 µM); in [10] it was 0.032 µg/mL (≈ 0.0834 µM).
For the molecule `C[C@@H](O)[C@H]1C(=O)N2C(C(=O)O)=C(SCCNC=N)C[C@H]12` [IMIPENEM ANHYDROUS], the MIC came to 1 µg/mL (≈ 3.34 µM) in assay [1]; 0.5 µg/mL (≈ 1.67 µM) in assay [2]; 0.25 µg/mL (≈ 0.835 µM) in [3]; 2 µg/mL (≈ 6.68 µM) in assay [4]; 4 µg/mL (≈ 13.4 µM) in assay [5]; 4 µg/mL (≈ 13.4 µM) in assay [6]. Further, the minimum inhibitory concentration (MIC) turned out to be 8 µg/mL (≈ 26.7 µM) in assay [7], 0.25 µg/mL (≈ 0.835 µM) in [8], 4 µg/mL (≈ 13.4 µM) in assay [9] and 0.25 µg/mL (≈ 0.835 µM) in assay [10].
